Assay results from patent US20100210682A1, “Repeated Dosing of TRPV1 Antagonists” (ABBOTT LABORATORIES, priority 2009, published 2010).

System: post-operative thermal hyperalgesia
Assay: Post-operative pain model in rats (skin incision), thermal hyperalgesia
Format: in vivo
Settings: po; rat, p.o., acute dosing, 24 h post-injury; read-out: ED50, reversal of thermal hyperalgesia
Description: The response to acute thermal stimulation was determined using a commercially available paw thermal stimulator (UARDG, University of California, San Diego, Calif.). Rats were placed individually in Plexiglass cubicles mounted on a glass surface maintained at 30° C., and allowed a 30 min habituation period. A thermal stimulus, in the form of radiant heat emitted from a focused projection bulb, was then applied to the plantar surface of each hind paw. In each test session, each rat was tested in three sequential trials at approximately 5 min intervals. Paw withdrawal latencies (PWLs) were calculated as the mean of the two shortest latencies. An assay cut-off was set at 20.5 s.
As described by Brennan et al. [Brennan T J, Vandermeulen E P, Gebhart G F. Characterization of a rat model of incisional pain. Pain 1996; 64:493-501], a 1 cm longitudinal incision was made through the skin and fascia of the plantar aspect of the foot, starting 0.5 cm from the proximal edge of the heel and extending toward the toes. The plantaris muscle was elevated and incised longitudinally with origin and insertion of the muscle remaining intact. The skin was then closed with two 5-0 nylon mattress sutures. After surgery, the animals were allowed to recover and housed individually with soft bedding. Animals were tested for mechanical allodynia using von Frey hairs and for thermal hyperalgesia as described above. […]

## CC(C)(C)c1ccc2c(c1)CC[C@H]2NC(=O)Nc1cccc2[nH]ncc12 [Compound A, N-[(1R)-5-tert-butyl-2,3-dihydro-1H-inden-1-yl]-N′-1H-indazol-4-ylurea]
  ED50: 40 µmol/kg
